Laboratory results: patent US11839613B2, “Pyrimidine derivatives as PGE2 receptor modulators” (IDORSIA PHARMACEUTICALS LTD, priority 2017, dated 2023)

Key:
EP4 = EP4 (Homo sapiens (Human), UniProt P35408); assay: hEP4 cAMP assay (BT549 breast cancer cells, HTRF cAMP); assay type: cell-based; settings: antagonistic activity, PGE2 6 nM
Text: (§1) Human tumor cell lines expressing endogenously either EP4 or EP2 are used and cAMP accumulation in cells upon PGE2 stimulation is monitored. SF295 glioblastoma cells express high endogenous EP2 and no EP4, whereas BT549 breast cancer cells, express high endogenous EP4 levels and very low EP2 levels.
(§2) As a detection method for cAMP the HTRF (homogeneous time resolved fluorescence) Cisbio kit (HTRF cAMP dynamic 2 kit 20'000 tests Cisbio Cat. #62AM4PEC) was used, which is based on a competitive immunoassay using a Cryptate-labeled anti-cAMP antibody and d2-labeled cAMP. Native cAMP produced by cells or unlabeled cAMP (for the standard curve) compete with exogenously added d2-labeled cAMP (acceptor) for binding to monoclonal anti-cAMP-Eu3+Cryptate (donor). A FRET signal (Fluorescence Resonance Energy Transfer) is obtained only if the labeled anti-cAMP antibody binds the d2 labelled cAMP, thus the specific signal (i.e. energy transfer) is inversely proportional to the concentration of cAMP in the standard or sample.
(§3) Cells are counted washed and resuspended in assay buffer (AB; HBSS, 20 mM HEPES, 0.2% BSA; 2 mM IBMX).
Plate is pre-incubated 45 minutes at RT. Subsequently, 2.5 microliters of PGE2 (final conc. 6 nM) are transferred into the assay plate. Plate is incubated 30 minutes at RT.

EP2 = EP2 (Homo sapiens (Human), UniProt P43116); assay: hEP2 cAMP assay (SF295 glioblastoma cells, HTRF cAMP); assay type: cell-based; settings: antagonistic activity
EP2, sequence (P43116 whole entry): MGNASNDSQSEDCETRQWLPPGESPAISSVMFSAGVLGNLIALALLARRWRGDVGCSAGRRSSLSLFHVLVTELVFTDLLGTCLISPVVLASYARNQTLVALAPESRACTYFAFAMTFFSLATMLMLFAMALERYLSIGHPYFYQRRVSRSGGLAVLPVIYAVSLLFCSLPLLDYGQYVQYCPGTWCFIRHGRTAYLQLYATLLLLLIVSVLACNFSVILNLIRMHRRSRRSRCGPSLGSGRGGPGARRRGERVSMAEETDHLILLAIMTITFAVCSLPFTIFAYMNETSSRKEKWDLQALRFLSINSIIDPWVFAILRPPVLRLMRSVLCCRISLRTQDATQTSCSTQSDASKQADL
Text: as §1, §2, §3
Plate is pre-incubated 45 minutes at RT. […] Plate is incubated 30 minutes at RT.

PTGER2 (EP2) = PTGER2 (EP2) (Homo sapiens (Human), UniProt P43116); assay: hEP2 b-arrestin assay (PathHunter HEK 293 PTGER2 b-arrestin cells); assay type: cell-based; settings: antagonistic activity, beta-arrestin assay; read-out: hEP2 b-arr IC50
PTGER2 (EP2), sequence (P43116 whole entry): as above
Procedure: Plate is pre-incubated 15 minutes at 37° C. Then five microliters of PGE2 (final conc. 5 μM) are transferred into the assay plate. Plate is incubated 120 minutes at 37° C.
(each concentration is measured in duplicate)

PTGER4 (EP4) = PTGER4 (EP4) (Homo sapiens (Human), UniProt P35408); assay: cell-based
PTGER4 (EP4), sequence (P35408 whole entry): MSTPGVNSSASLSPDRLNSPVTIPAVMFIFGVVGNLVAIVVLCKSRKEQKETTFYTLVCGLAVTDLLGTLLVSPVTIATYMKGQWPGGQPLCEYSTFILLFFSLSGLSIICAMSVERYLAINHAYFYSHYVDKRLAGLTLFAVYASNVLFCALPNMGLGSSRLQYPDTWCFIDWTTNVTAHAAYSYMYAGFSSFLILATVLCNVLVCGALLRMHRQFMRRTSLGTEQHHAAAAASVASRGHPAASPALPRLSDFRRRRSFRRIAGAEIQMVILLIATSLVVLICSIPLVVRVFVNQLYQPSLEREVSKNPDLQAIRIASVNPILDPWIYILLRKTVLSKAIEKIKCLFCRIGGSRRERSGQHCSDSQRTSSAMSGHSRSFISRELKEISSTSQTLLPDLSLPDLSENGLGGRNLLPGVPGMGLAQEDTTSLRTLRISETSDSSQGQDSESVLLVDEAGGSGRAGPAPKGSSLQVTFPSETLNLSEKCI

EP4, sequence (P35408 whole entry): as above

| IC50 (EP4) | IC50 (EP2) | IC50 (PTGER2 (EP2)) | IC50 (EP4; BT549 cells) | IC50 (PTGER4 (EP4)) | SMILES |
| --- | --- | --- | --- | --- | --- |
| 22 nM | 66 nM |  |  |  | Cc1c(CCNc2cc(-c3cc(OCCO)c(C(=O)O)s3)ncn2)ccc2ccccc12 [Ex 48] |
| 76 nM | 950 nM |  |  |  | CCOc1cc(-c2cc(NCCc3c(F)cc4ccccc4c3F)ncn2)ccc1CC(=O)O [Ex 107] |
| 252 nM | 794 nM |  |  |  | CCOc1cc(-c2cc(NCCc3cc4c(cc3OC)N(C)C(=O)CC4)ncn2)sc1C(=O)O [Ex 210] |
| 253 nM | 571 nM |  |  |  | CCOc1cc(-c2cc(NCCc3cc4ccccc4cc3OC(F)F)ncn2)ccc1C(=O)O [Ex 211] |
| 272 nM | 321 nM | 238 nM |  |  | CCOc1cc(-c2cc(NCCc3cc4c(cc3OC(F)F)OCO4)ncn2)ccc1OCC(=O)O [Ex 217] |
| 283 nM | 141 nM | 113 nM |  |  | CCOc1cc(-c2cc(NCCc3ccc4ccccc4c3C)ncn2)ccc1-c1noc(O)n1 [Ex 220] |
| 285 nM | 2 nM | 8 nM |  |  | CCOc1cc(-c2cc(NCCc3c(OC)cc4occc4c3C)ncn2)ccc1C(=O)O [Ex 221, 2-Ethoxy-4-{6-[2-(6-methoxy-4-methyl-benzofuran-5-yl)-ethylamino]-pyrimidin-4-yl}-benzoic acid] |
| 287 nM | 279 nM |  |  |  | CCSc1cc(-c2cc(NCCc3ccc4sccc4c3)ncn2)ccc1C(=O)O [Ex 222] |
| 288 nM | 199 nM | 329 nM |  |  | CCOc1cc(-c2cc(NCCc3ccc4cc[nH]c4c3)ncn2)ccc1OC(C)C(=O)O (stereo not shown) [Ex 223] |
| 289 nM | 923 nM |  |  |  | CCOc1cc(-c2cc(NCCc3ccc4[nH]ccc4c3)ncn2)ccc1OCC(=O)O [Ex 225, (2-Ethoxy-4-{6-[2-(1H-indol-5-yl)-ethylamino]-pyrimidin-4-yl}-phenoxy)-acetic acid] |
| 291 nM | 250 nM | 151 nM |  |  | c1nc(NCCc2ccc3cc[nH]c3c2)cc(-c2ccc3[nH]ccc3c2)n1 [Ex 226, [2-(1H-Indol-6-yl)-ethyl]-[6-(1H-indol-5-yl)-pyrimidin-4-yl]-amine] |
| 293 nM | 88 nM | 142 nM |  |  | CCOc1cc(-c2cc(NCCc3cc4ccoc4cc3F)ncn2)ccc1C(=O)O [Ex 227, 2-Ethoxy-4-{6-[2-(6-fluoro-benzofuran-5-yl)-ethylamino]-pyrimidin-4-yl}-benzoic acid] |
| 300 nM | 194 nM | 392 nM |  |  | O=C(O)c1ccc(-c2cc(NCCc3c(F)cc4ncccc4c3F)ncn2)cc1OC1CCC1 [Ex 228] |
| 325 nM | 113 nM |  |  |  | Cc1c(CCNc2cc(-c3ccc(C(=O)O)c(OCCO)c3)ncn2)ccc2ccccc12 [Ex 234] |
| 325 nM | 772 nM |  |  |  | Cc1c(CCNc2cc(-c3ccc(C(=O)O)c(OC4CCC4)c3)ncn2)ccc2cccnc12 [Ex 235] |
| 356 nM | 552 nM |  |  |  | O=C(O)c1ccc(-c2cc(NCCc3ccc4c(c3)OCCO4)ncn2)cc1OC1CCC1 [Ex 244] |
| 358 nM | 304 nM |  |  |  | CCOc1cc2ccccc2cc1CCNc1cc(-c2ccc(OC(C)(C)C(=O)O)c(OCC)c2)ncn1 [Ex 245] |
| 364 nM | 534 nM |  |  |  | O=C(O)c1ccc(-c2cc(NCCc3cc(Cl)c4c(c3)OCCO4)ncn2)cc1OC1CCC1 [Ex 246] |
| 365 nM | 797 nM |  |  |  | CCOc1cc(-c2cc(NCCc3cc4ccccc4cc3Cl)ncn2)ccc1OCC(=O)O [Ex 247] |
| 390 nM | 3610 nM |  |  |  | CCOc1cc(-c2cc(NCCc3cc4ccccc4cc3OC(C)C)ncn2)ccc1CC(=O)O [Ex 258] |
| 394 nM | 302 nM |  |  |  | CCOc1cc(-c2cc(NCCc3ccc4cc[nH]c4c3)ncn2)ccc1C(=O)O [Ex 259, 2-Ethoxy-4-{6-[2-(1H-indol-6-yl)-ethylamino]-pyrimidin-4-yl}-benzoic acid] |
| 404 nM | 880 nM |  |  |  | CCOc1cc(-c2cc(NCCc3ccc4ccccc4c3Cl)ncn2)ccc1C(=O)O [Ex 260] |

| IC50 (EP4) | IC50 (EP2) | IC50 (PTGER2 (EP2)) | IC50 (EP4; BT549 cells) | IC50 (PTGER4 (EP4)) | SMILES |
| --- | --- | --- | --- | --- | --- |
| 425 nM | 524 nM |  |  |  | Cc1c(Cl)c(CCNc2cc(-c3ccc(C(=O)O)c(OC4CCC4)c3)ncn2)cc2cccnc12 [Ex 263] |
| 425 nM | 11800 nM |  |  |  | CC(C)Oc1cc2ccccc2cc1CCNc1cc(-c2ccc(C(=O)O)c(OC3CCC3)c2)ncn1 [Ex 264] |
| 431 nM | 306 nM |  |  |  | c1nc(NCCc2ccc3cc[nH]c3c2)cc(-c2ccc3cc[nH]c3c2)n1 [Ex 267, [2-(1H-Indol-6-yl)-ethyl]-[6-(1H-indol-6-yl)-pyrimidin-4-yl]-amine] |
| 439 nM | 638 nM |  |  |  | CCOc1cc(-c2cc(NCCc3ccc4cc[nH]c4c3)ncn2)ccc1CC(=O)O [Ex 271] |
| 491 nM | 514 nM |  |  |  | COc1cc2cc(F)oc2cc1CCNc1cc(-c2ccc(C(=O)O)c(OC3CCC3)c2)ncn1 [Ex 280] |
| 498 nM | 296 nM |  |  |  | CCOc1cc(-c2cc(NCCc3cc4ccccc4cc3OC)ncn2)cc(OC)c1C(=O)O [Ex 282] |
| 502 nM | 618 nM |  |  |  | COc1cc(-c2cc(NCCc3cc4cccnc4cc3F)ncn2)sc1C1(O)COC1 [Ex 283] |
| 561 nM | 786 nM |  |  |  | NC(=O)c1ccc(-c2cc(NCCc3ccc4cc[nH]c4c3)ncn2)s1 [Ex 294, 5-{6-[2-(1H-Indol-6-yl)-ethylamino]-pyrimidin-4-yl}-thiophene-2-carboxylic acid amide] |
| 613 nM | 716 nM |  |  |  | CCOc1cc(-c2cc(NCCc3cc4c(cnn4C)cc3OC)ncn2)ccc1OCC(=O)O [Ex 298] |
| 624 nM | 312 nM |  |  |  | COc1cc2ccccc2cc1CCNc1cc(-c2cc(OC)c(C(=O)O)c(OC)c2)ncn1 [Ex 300] |
| 626 nM | 425 nM |  |  |  | CCOc1cc(-c2cc(NCCc3cc4cccnc4c(F)c3Cl)ncn2)ccc1OCC(=O)O [Ex 301] |
| 520 nM | 384 nM |  |  |  | Cc1c(CCNc2cc(-c3ccc(-c4nc(O)no4)cc3)ncn2)ccc2ccccc12 [Ex 302] |
| 652 nM | 408 nM |  |  |  | CCOc1cc(-c2cc(NCCc3c(F)cc4ncccc4c3F)ncn2)ccc1C(=O)O [Ex 304] |
| 658 nM | 677 nM |  |  |  | Oc1c(F)cc(-c2cc(NCCc3ccc4cc[nH]c4c3)ncn2)cc1F [Ex 307, 2,6-Difluoro-4-{6-[2-(1H-indol-6-yl)-ethylamino]-pyrimidin-4-yl}-phenol] |
| 677 nM | > 27700 nM |  |  |  | CCOc1cc(-c2cc(NCCc3ccc4c(c3)OCCC4)ncn2)ccc1C(=O)O [Ex 309, 4-[6-(2-Chroman-7-yl-ethylamino)-pyrimidin-4-yl]-2-ethoxy-benzoic acid] |
| 691 nM | 273 nM |  |  |  | CCOc1cc(-c2cc(NCCc3cc4c(cc3OC)OCCO4)ncn2)ccc1OC(C)(C)C(=O)O [Ex 313] |
| 729 nM | 792 nM |  |  |  | CCOc1cc(-c2cc(NCCc3ccc4ccccc4c3C)ncn2)sc1CC(=O)OC [Ex 316] |
| 766 nM | 440 nM |  |  |  | COc1cc(-c2cc(NCCc3ccc4sccc4c3)ncn2)cc(OC)c1C(=O)O [Ex 320, 4-[6-(2-Benzo[b]thiophen-5-yl-ethylamino)-pyrimidin-4-yl]-2,6-dimethoxy-benzoic acid] |
| 772 nM | 562 nM |  |  |  | CCOc1cc(-c2cc(NCCc3ccc4sccc4c3)ncn2)ccc1OC(C)(C)C(=O)O [Ex 321] |
| 858 nM | 899 nM |  |  |  | CCOc1cc(-c2cc(NCCc3cc(Cl)c4c(c3)OCCO4)ncn2)ccc1C(=O)O [Ex 324] |
| 828 nM | 2340 nM |  |  |  | NC(=O)c1ccc(-c2cc(NCCc3c(F)cc4ncccc4c3F)ncn2)s1 [Example 356, 5-{6-[2-(5,7-Difluoro-quinolin-6-yl)-ethylamino]-pyrimidin-4-yl}-thiophene-2-carboxylic acid amide] |
|  |  | 417 nM | 155 nM | 187 nM | O=C(O)c1coc2cc(-c3cc(NCCc4ccc5sccc5c4)ncn3)ccc12 [Example 467, 6-[6-(2-Benzo[b]thiophen-5-yl-ethylamino)-pyrimidin-4-yl]-benzofuran-3-carboxylic acid] |

| SMILES | IC50 (EP4) | IC50 (EP2) | IC50 (PTGER2 (EP2)) | IC50 (EP4; BT549 cells) | IC50 (PTGER4 (EP4)) |
| --- | --- | --- | --- | --- | --- |
| COc1cc2c(cc1CCNc1cc(-c3ccc(C(=O)O)c(OC4CCC4)c3)ncn1)OCO2 [Ex 213, 2-Cyclobutoxy-4-{6-[2-(6-methoxy-benzo[1,3]dioxol-5-yl)-ethylamino]-pyrimidin-4-yl}-benzoic acid] | 256 nM | 46 nM | 59 nM |  |  |
| O=C(O)c1ccc(-c2cc(NCCc3ccc4c(c3)OCCC4)ncn2)cc1OC1CCC1 [Ex 265, 4-[6-(2-Chroman-7-yl-ethylamino)-pyrimidin-4-yl]-2-cyclobutoxy-benzoic acid] | 428 nM | 11400 nM |  |  |  |
| O=C(O)c1ccc(-c2cc(NCCc3ccc4[nH]ccc4c3)ncn2)cc1OC1CCC1 [Ex 322, 2-Cyclobutoxy-4-{6-[2-(1H-indol-5-yl)-ethylamino]-pyrimidin-4-yl}-benzoic acid] | 814 nM | 809 nM |  |  |  |
